Columns and labels:
wildtype AKT1 = target: T1, wildtype AKT1 (Homo sapiens, UniProt P31749); assay: AKT1 kinase assay, wildtype (TR-FRET, Lance); type: biochemical; conditions: full-length human recombinant wildtype AKT1 activated by PDPK1; Ulight-CREBtide substrate; either 50 μM ATP or 2 mM ATP
T1 construct: Purified human recombinant kinase full-length wildtype AKT1 was expressed in insect cells; made in house; host or cells: insect cells
Description: AKT1 kinase assay: Inhibitory effects of compounds on wildtype AKT1 were undertaken in a 10-pt dose response kinase activity assay measuring phospho-peptide product formation based on TR-FRET signal as described in the following paragraph.
(§1) Purified human recombinant kinase full-length wildtype AKT1 was expressed in insect cells and activated in vitro by PDPK1. Ulight™-CREBtide (PerkinElmer, catalog number TRF0107) was used as the peptide substrate. The reaction buffer consisted of 50 mM HEPES pH 7.5, 10 mM MgCl2, 0.01% Triton X-100, 0.01% BSA, 2 mM DTT, 0.6 nM AKT1, 50 nM Ulight™-CREBtide and either 50 μM ATP or 2 mM ATP. The compound solution was prepared as 10 mM DMSO stock. For the assay, a 1:3 serial dilution 10-pt dose response of test compounds, in duplicate, for each concentration were dispensed into a 384-well plate (Corning, catalog number 4513). Final DMSO concentration in the assay was 1%. The enzyme mixture (5 μL, 1.2 nM) were added and the mixture was incubated for 15 min at RT prior to the start of the kinase reaction by the addition of 5 μL substrate mixture (100 nM Ulight™-CREBtide). The reaction was stopped after 60 min of incubation at RT by the addition of 10 μL of Detection Mix (PerkinElmer. #CR97-100) consisting of Europium-anti-phospho-CREB (Ser133) (Perkin Elmer, catalog numberTRF0200). Incubation with the detection mix for a further 60 min allowed binding of antibody to the phospho-Ulight™ CREBtide. The fluorescence emissions at 620 nm and 665 nm after excitation at 350 nm was measured using Envision reader. The ratio of the emissions at 665 nm and at 620 nm provided the measure for the amount of phosphorylated CREBtide product of AKT1 kinase activity. To determine the IC50 values, the data was normalized (enzyme reaction without inhibitor=0% inhibition, all other assay components but no enzyme=100% inhibition) and IC50 values were calculated by a 4-parameter fit using an in-house developed protocol.

AKT1 E17K = target: T2, AKT1 E17K (Homo sapiens, UniProt P31749, E17K); assay: AKT1 E17K kinase assay (TR-FRET, Lance); type: biochemical; conditions: full-length human recombinant AKT1 E17K activated by PDPK1; Ulight-CREBtide substrate; either 50 μM ATP or 2 mM ATP
T2 construct: Purified human recombinant kinase full-length AKT1 E17K was expressed in insect cells; made in house; host or cells: insect cells
T2 sequence (P31749 whole entry E17K): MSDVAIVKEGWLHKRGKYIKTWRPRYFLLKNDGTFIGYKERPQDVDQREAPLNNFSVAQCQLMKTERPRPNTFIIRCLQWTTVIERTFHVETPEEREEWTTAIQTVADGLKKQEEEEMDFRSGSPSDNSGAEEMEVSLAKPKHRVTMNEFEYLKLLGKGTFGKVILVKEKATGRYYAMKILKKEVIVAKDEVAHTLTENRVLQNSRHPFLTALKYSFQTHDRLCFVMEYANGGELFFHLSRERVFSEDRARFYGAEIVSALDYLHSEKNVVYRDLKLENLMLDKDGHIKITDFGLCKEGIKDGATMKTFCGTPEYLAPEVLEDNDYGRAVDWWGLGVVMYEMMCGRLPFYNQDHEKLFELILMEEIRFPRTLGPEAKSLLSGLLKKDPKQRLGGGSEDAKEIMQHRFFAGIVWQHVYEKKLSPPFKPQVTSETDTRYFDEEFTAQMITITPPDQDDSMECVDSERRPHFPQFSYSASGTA
Description: AKT1 E17K kinase assay: Inhibitory effects of compounds on AKT1 E17K were undertaken in a 10-pt dose response kinase activity assay measuring phospho-peptide product formation based on TR-FRET signal as described in the following paragraph.
as §1, with “full-length” for “full-length wildtype”, “AKT1 E17K” for “AKT1”, “AKT1 E17K,” for “AKT1,”, “(PerkinElmer,” for “(PerkinElmer.”

T1 sequence (P31749 whole entry): as the sequence (P31749 whole entry E17K) above, with K17E counted along it

IC50 (wildtype AKT1) [nM] | IC50 (AKT1 E17K) [nM] | Compound
< 500 | < 50 | Cc1nc(NC(=O)c2cccc(-c3nsc(=O)[nH]3)c2)ccc1-n1c(-c2cccnc2N)nc2ccc(-c3ccccc3)nc21 [Compound I-40, N-(5-(2-(2-aminopyridin-3-yl)-5-phenyl-3H-imidazo[4,5-b]pyridin-3-yl)-6-methylpyridin-2-yl)-3-(5-oxo-4,5-dihydro-1,2,4-thiadiazol-3-yl)benzamide]
< 500 | 200 to 500 | Cc1cc(C(N)=O)nn1-c1ccc(C(=O)NCc2ccc(-n3c(-c4cccnc4N)nc4ccc(-c5ccccc5)nc43)cc2)cc1 [Compound I-17, 1-(4-((4-(2-(2-aminopyridin-3-yl)-5-phenyl-3H-imidazo[4,5-b]pyridin-3-yl)benzyl)carbamoyl)phenyl)-5-methyl-1H-pyrazole-3-carboxamide]
< 500 | ≥ 500 | Cc1cc(O)n(-c2cccc(C(=O)NCc3ccc(-n4c(-c5cccnc5N)nc5ccc(-c6ccccc6)nc54)cc3)c2)n1 [Compound I-3, N-(4-(2-(2-aminopyridin-3-yl)-5-phenyl-3H-imidazo[4,5-b]pyridin-3-yl)benzyl)-3-(5-hydroxy-3-methyl-1H-pyrazol-1-yl)benzamide]
< 500 | < 50 | Nc1ncccc1-c1nc2ccc(-c3ccccc3)nc2n1-c1ccc(C2CN(C(=O)c3ccc(-c4nn[nH]n4)cc3)C2)cc1 [Compound I-26, (4-(2H-tetrazol-5-yl)phenyl)(3-(4-(2-(2-aminopyridin-3-yl)-5-phenyl-3H-imidazo[4,5-b]pyridin-3-yl)phenyl)azetidin-1-yl)methanone]
> 500 | ≥ 500 | Cc1cc(O)n(-c2ccc(C(=O)NCc3ccc(-n4c(-c5cccnc5N)nc5ccc(-c6ccccc6)nc54)nc3)cc2)n1 [Compound I-22, N-[[6-[2-(2-amino-3-pyridyl)-5-phenyl-imidazo[4,5-b]pyridin-3-yl]-3-pyridyl]methyl]-4-(5-hydroxy-3-methyl-pyrazol-1-yl)benzamide]
< 500 | 200 to 500 | COc1cc(C)nn1-c1ccc(C(=O)NCc2ccc(-n3c(-c4cccnc4N)nc4ccc(-c5ccccc5)nc43)cc2)cc1 [Compound I-2, N-(4-(2-(2-aminopyridin-3-yl)-5-phenyl-3H-imidazo[4,5-b]pyridin-3-yl)benzyl)-4-(5-methoxy-3-methyl-1H-pyrazol-1-yl)benzamide]
< 500 | 200 to 500 | Cc1nc(NC(=O)[C@H]2CC[C@H](c3nn[nH]n3)CC2)ccc1-n1c(-c2cccnc2N)nc2ccc(-c3ccccc3)nc21 [Compound I-39, (1r,4r)-N-(5-(2-(2-aminopyridin-3-yl)-5-phenyl-3H-imidazo[4,5-b]pyridin-3-yl)-6-methylpyridin-2-yl)-4-(2H-tetrazol-5-yl)cyclohexane-1-carboxamide]
< 500 | 50 to 200 | CN(Cc1ccc(-n2c(-c3cccnc3N)nc3ccc(-c4ccccc4)nc32)cc1)[C@H]1CC[C@@H](c2nsc(=O)[nH]2)CC1 [Compound I-48, 3-((1s,4s)-4-((4-(2-(2-aminopyridin-3-yl)-5-phenyl-3H-imidazo[4,5-b]pyridin-3-yl)benzyl)(methyl)amino)cyclohexyl)-1,2,4-thiadiazol-5(4H)-one]
< 500 | < 50 | Nc1ncccc1-c1nc2ccc(-c3ccccc3)nc2n1-c1ccc(CNC(=O)c2ccc(-n3cc(C(=O)O)cn3)cc2)cc1 [Compound I-11, 1-(4-((4-(2-(2-aminopyridin-3-yl)-5-phenyl-3H-imidazo[4,5-b]pyridin-3-yl)benzyl)carbamoyl)phenyl)-1H-pyrazole-4-carboxylic acid]
< 500 | < 50 | Nc1ncccc1-c1nc2ccc(-c3ccccc3)nc2n1-c1ccc(CNC(=O)c2ccc(-n3nc(CC(=O)O)cc3O)cc2)cc1 [Compound I-10, 2-(1-(4-((4-(2-(2-aminopyridin-3-yl)-5-phenyl-3H-imidazo[4,5-b]pyridin-3-yl)benzyl)carbamoyl)phenyl)-5-hydroxy-1H-pyrazol-3-yl)acetic acid]
< 500 | 200 to 500 | Cc1cc(C(N)=O)n(-c2ccc(C(=O)NCc3ccc(-n4c(-c5cccnc5N)nc5ccc(-c6ccccc6)nc54)cc3)cc2)n1 [Compound I-16, 1-(4-((4-(2-(2-aminopyridin-3-yl)-5-phenyl-3H-imidazo[4,5-b]pyridin-3-yl)benzyl)carbamoyl)phenyl)-3-methyl-1H-pyrazole-5-carboxamide]
< 500 | 50 to 200 | COC(=O)Cc1cc(O)n(-c2ccc(C(=O)NCc3ccc(-n4c(-c5cccnc5N)nc5ccc(-c6ccccc6)nc54)cc3)cc2)n1 [Compound I-9, Methyl 2-(1-(4-((4-(2-(2-aminopyridin-3-yl)-5-phenyl-3H-imidazo[4,5-b]pyridin-3-yl)benzyl)carbamoyl)phenyl)-5-hydroxy-1H-pyrazol-3-yl)acetate]
< 500 | ≥ 500 | Nc1ncccc1-c1nc2ccc(-c3ccccc3)nc2n1-c1ccc(C2CN(C[C@H]3CC[C@H](c4nsc(=O)[nH]4)CC3)C2)cc1 [Compound I-43, 3-((1r,4r)-4-((3-(4-(2-(2-aminopyridin-3-yl)-5-phenyl-3H-imidazo[4,5-b]pyridin-3-yl)phenyl)azetidin-1-yl)methyl)cyclohexyl)-1,2,4-thiadiazol-5(4H)-one]
< 500 | 200 to 500 | Cc1cc(C#N)n(-c2ccc(C(=O)NCc3ccc(-n4c(-c5cccnc5N)nc5ccc(-c6ccccc6)nc54)cc3)cc2)n1 [Compound I-13, N-(4-(2-(2-aminopyridin-3-yl)-5-phenyl-3H-imidazo[4,5-b]pyridin-3-yl)benzyl)-4-(5-cyano-3-methyl-1H-pyrazol-1-yl)benzamide]
< 500 | 50 to 200 | Cc1cc(O)n(-c2ccc(C(=O)NCc3ccc(-n4c(-c5cccnc5N)nc5ccc(-c6ccccc6)nc54)cc3)cc2)n1 [Compound I-1, N-(4-(2-(2-aminopyridin-3-yl)-5-phenyl-3H-imidazo[4,5-b]pyridin-3-yl)benzyl)-4-(3-methyl-5-oxo-4,5-dihydro-1H-pyrazol-1-yl)benzamide]
< 500 | 50 to 200 | Nc1ncccc1-c1nc2ccc(-c3ccccc3)nc2n1-c1ccc(NC(=O)c2ccc(-c3nsc(=O)[nH]3)cc2F)nc1 [Compound I-41, N-(5-(2-(2-aminopyridin-3-yl)-5-phenyl-3H-imidazo[4,5-b]pyridin-3-yl)pyridin-2-yl)-2-fluoro-4-(5-oxo-4,5-dihydro-1,2,4-thiadiazol-3-yl)benzamide]
< 500 | 200 to 500 | Cc1cc(O)n(-c2ccc(C(=O)NCc3ccc(-n4c(-c5cccnc5N)nc5ccc(-c6ccccc6)nc54)cc3)nc2)n1 [Compound I-19, N-(4-(2-(2-aminopyridin-3-yl)-5-phenyl-3H-imidazo[4,5-b]pyridin-3-yl)benzyl)-5-(5-hydroxy-3-methyl-1H-pyrazol-1-yl)picolinamide]
